Measurements reported in patent US20160067311A1, “USE OF ELSIGLUTIDE TO TREAT GASTROINTESTINAL MUCOSITIS INCLUDING CHEMOTHERAPY-INDUCED DIARRHEA” (Helsinn Healthcare SA, priority 2014, published 2016).
Peptide text beside a SMILES is read from it.

Columns and labels:
[1] = human, in vivo
Description: (§1) Data on human exposure to elsiglutide generated so far originate from three clinical trials, one performed in healthy subjects (study 06-013) and two in cancer patients (TIDE-09-04, TIDE-11-10). The main objective of the first two studies was the evaluation of the safety, tolerability and maximum tolerated dose (MTD) of ascending elsiglutide doses administered as s.c. (both studies) and i.v. (only study 06-013) bolus injections. In study 06-013 elsiglutide was administered as single i.v. or s.c. bolus, while in study TIDE-09-04 each dose was administered as s.c. bolus on 4 consecutive days. Study TIDE-11-10 was a phase II proof of concept study that mainly evaluated the efficacy of elsiglutide administered as 24 mg daily s.c. bolus injections for 4 consecutive days in preventing CID in patients with colorectal cancer receiving 5-FU based chemotherapy (FOLFOX4 or FOLFIRI regimen). The secondary objectives of all three studies included the evaluation of the pharmacokinetics of elsiglutide and its major metabolites in humans.

[2] = Clinical pharmacokinetics of elsiglutide and its metabolites (studies 06-013, TIDE-09-04, TIDE-11-10)
Description: as §1

cancer patients = details: patients treated with the drug; cited from earlier work

| SMILES | exposure to metabolite relative to exposure to the parent ZP1846 (elsiglutide) [1] [fold] | AUC of ZP2242 relative to that of ZP2712 ([2]; human, plasma) | half-life ([2]; human, plasma) [h] | dose dependence of pharmacokinetics (Cmax and AUC increases proportional to dose) ([2]; study TIDE-09-04, s.c. on 4 consecutive days) | patients in whom diarrhea occurs (cancer patients) |
| --- | --- | --- | --- | --- | --- |
| CC[C@H](C)[C@H](NC(=O)[C@H](CC(C)C)NC(=O)[C@H](Cc1c[nH]c2ccccc12)NC(=O)[C@H](C)NC(=O)[C@@H](NC(=O)[C@H](Cc1ccccc1)NC(=O)[C@H](CC(=O)O)NC(=O)[C@H](CCCNC(=N)N)NC(=O)[C@H](C)NC(=O)[C@H](C)NC(=O)[C@H](CC(C)C)NC(=O)[C@H](C)NC(=O)[C@H](CC(=O)O)NC(=O)[C@H](CC(C)C)NC(=O)[C@@H](NC(=O)[C@@H](NC(=O)[C@H](CO)NC(=O)[C@H](CC(C)C)NC(=O)[C@H](CCC(=O)O)NC(=O)[C@H](CO)NC(=O)[C@H](CO)NC(=O)[C@H](Cc1ccccc1)NC(=O)[C@H](CO)NC(=O)CNC(=O)[C@H](CCC(=O)O)NC(=O)CNC(=O)[C@@H](N)Cc1c[nH]cn1)[C@@H](C)O)[C@@H](C)CC)[C@@H](C)CC)C(=O)N[C@@H](C)C(=O)N[C@H](C(=O)N[C@@H](CCCCN)C(=O)N[C@H](C(=O)N[C@H](C(=O)N[C@@H](CC(=O)O)C(=O)N[C@@H](CCCCN)C(=O)O)[C@@H](C)O)[C@@H](C)CC)[C@@H](C)O [ZP2242] (H-HGEGSFSSELSTILDALAARDFIAWLIATKITDK-OH; N-terminus assumed) | > 25 | at least 10 times | 6 to 9 | dose independent | – |
| CS(=O)(=O)CCNCc1ccc(-c2ccc3ncnc(Nc4ccc(OCc5cccc(F)c5)c(Cl)c4)c3c2)o1 [lapatinib] | – | – | – | – | up to 60% |
